{"source": "patent US6743419B1", "about": "“Method of reducing hair growth employing sulfhydryl active compounds” (The Gillette Company, priority 1992, dated 2004)", "key": {"[1]": {"test_system": "hair growth", "test": "Inhibition of hair growth (hair mass, treated vs untreated site)", "assay_type": "in vivo, hamster"}, "[2]": {"test": "Percent reduction in hair shaft cysteine (amino acid analysis of hamster flank organ hairs)", "assay_type": "in vivo", "set-up": "concentration or dose not given beside the values"}, "[3]": {"test": "Formation of cysteine-mixed disulfide in vitro (incubation with cystine or cysteine, HPLC)", "conditions": "pH 7.4, 37° C."}, "[4]": {"test": "Reduction of cystine (generation of cysteine on incubation with cystine, HPLC)", "conditions": "37 C, pH 7.4"}, "[5]": {"test": "Formation of cysteine-mixed disulfide in hair shafts after topical treatment", "assay_type": "in vivo, Golden Syrian hamsters", "conditions": "thirteen topical treatments over 18 days, flank organ"}}, "data": [{"compound": "5′-Deoxy-5′-methylthioadenosine", "values": [{"measurement": "Hair Mass Percent Reduction", "setting": "[1]; Dose 10%, Vehicle A, topical", "value": "57 ± 6", "unit": "%"}, {"measurement": "Hair Mass Treated", "setting": "[1]; Dose 10%, Vehicle A, topical", "value": "1.25 ± 0.17", "unit": "mg"}, {"measurement": "Percent reduction in hair shaft cysteine", "setting": "[2]; hamster flank organ hairs", "value": 11, "unit": "%"}]}, {"compound": "O=C(O)CCCCC1CCSS1", "note": "(racemic) [DL-α-Lipoic acid (reduced form), DL-α-Lipoic acid]", "values": [{"measurement": "Hair Mass Percent Reduction", "setting": "[1]; Dose 5%, Vehicle B, topical", "value": "16 ± 5", "unit": "%"}, {"measurement": "Hair Mass Treated", "setting": "[1]; Dose 5%, Vehicle B, topical", "value": "2.67 ± 0.26", "unit": "mg"}, {"measurement": "Hair Mass Percent Reduction", "setting": "[1]; Dose 15%, Vehicle A, topical", "value": "56 ± 6", "unit": "%"}, {"measurement": "Hair Mass Treated", "setting": "[1]; Dose 15%, Vehicle A, topical", "value": "0.74 ± 0.09", "unit": "mg"}]}, {"compound": "O=S(=O)(O)CC(S)CS", "note": "(stereo not shown) [2,3,-Dimercapto-1-propanesulfonic acid]", "values": [{"measurement": "Hair Mass Percent Reduction", "setting": "[1]; Dose 20%, Vehicle A, topical", "value": "79 ± 3", "unit": "%"}, {"measurement": "Hair Mass Treated", "setting": "[1]; Dose 20%, Vehicle A, topical", "value": "0.64 ± 0.08", "unit": "mg"}, {"measurement": "Percent reduction in hair shaft cysteine", "setting": "[2]; hamster flank organ hairs", "value": 40, "unit": "%"}, {"measurement": "Formation of Cysteine mixed disulfide in-vitro", "setting": "[3]", "value": "YES"}, {"measurement": "Reduction of Cystine", "setting": "[4]", "value": "YES"}]}, {"compound": "NCCS", "note": "[2-Mercaptoethylamine (Cysteamine), 2-Mercaptoethylamine, reference compound]", "values": [{"measurement": "Hair Mass Percent Reduction", "setting": "[1]; Dose 20%, Vehicle A, topical", "value": "86 ± 3", "unit": "%"}, {"measurement": "Hair Mass Treated", "setting": "[1]; Dose 20%, Vehicle A, topical", "value": "0.30 ± 0.09", "unit": "mg"}, {"measurement": "Percent reduction in hair shaft cysteine", "setting": "[2]; hamster flank organ hairs", "value": 50, "unit": "%"}, {"measurement": "Formation of Cysteine mixed disulfide in-vitro", "setting": "[3]", "value": "YES"}, {"measurement": "Formation of Cysteine mixed disulfide in hair shaft", "setting": "[5]", "value": "YES"}, {"measurement": "Reduction of Cystine", "setting": "[4]", "value": "YES"}]}, {"compound": "CCCCCCCCCCCCOC(=O)CCSCCC(=O)OCCCCCCCCCCCC", "note": "[3,3′-Thiodipropionic acid dilauryl ester]", "values": [{"measurement": "Hair Mass Percent Reduction", "setting": "[1]; Dose 5%, Vehicle D, topical", "value": "30 ± 7", "unit": "%"}, {"measurement": "Hair Mass Treated", "setting": "[1]; Dose 5%, Vehicle D, topical", "value": "1.70 ± 0.21", "unit": "mg"}, {"measurement": "Hair Mass Percent Reduction", "setting": "[1]; Dose 20%, Vehicle D, topical", "value": "50 ± 4", "unit": "%"}, {"measurement": "Hair Mass Treated", "setting": "[1]; Dose 20%, Vehicle D, topical", "value": "1.07 ± 0.10", "unit": "mg"}]}, {"compound": "O=C(O)CCSCCC(=O)O", "note": "[3,3′-Thiodipropionic acid]", "values": [{"measurement": "Hair Mass Percent Reduction", "setting": "[1]; Dose 20%, Vehicle A, topical", "value": "73 ± 4", "unit": "%"}, {"measurement": "Hair Mass Treated", "setting": "[1]; Dose 20%, Vehicle A, topical", "value": "0.76 ± 0.12", "unit": "mg"}]}, {"compound": "CSCCCN", "note": "[3-(Methylthio)-propylamine]", "values": [{"measurement": "Hair Mass Percent Reduction", "setting": "[1]; Dose 2%, Vehicle A, topical", "value": "22 ± 13", "unit": "%"}, {"measurement": "Hair Mass Treated", "setting": "[1]; Dose 2%, Vehicle A, topical", "value": "0.97 ± 0.13", "unit": "mg"}]}, {"compound": "O=C(O)CCCSSCCCC(=O)O", "note": "[3-Carboxypropyl disulfide]", "values": [{"measurement": "Hair Mass Percent Reduction", "setting": "[1]; Dose 15%, Vehicle A, topical", "value": "74 ± 4", "unit": "%"}, {"measurement": "Hair Mass Treated", "setting": "[1]; Dose 15%, Vehicle A, topical", "value": "0.70 ± 0.14", "unit": "mg"}]}, {"compound": "C=CCSCC=C", "note": "[Allyl sulfide]", "values": [{"measurement": "Hair Mass Percent Reduction", "setting": "[1]; Dose 20%, Vehicle B, topical", "value": "17 ± 10", "unit": "%"}, {"measurement": "Hair Mass Treated", "setting": "[1]; Dose 20%, Vehicle B, topical", "value": "1.74 ± 0.16", "unit": "mg"}]}, {"compound": "C[C@H](CS)C(=O)N1CCC[C@H]1C(=O)O", "note": "[Captopril, reference compound]", "values": [{"measurement": "Hair Mass Percent Reduction", "setting": "[1]; Dose 10%, Vehicle A, topical", "value": "57 ± 5", "unit": "%"}, {"measurement": "Hair Mass Treated", "setting": "[1]; Dose 10%, Vehicle A, topical", "value": "1.49 ± 0.20", "unit": "mg"}, {"measurement": "Percent reduction in hair shaft cysteine", "setting": "[2]; hamster flank organ hairs", "value": 26, "unit": "%"}, {"measurement": "Formation of Cysteine mixed disulfide in-vitro", "setting": "[3]", "value": "YES"}, {"measurement": "Reduction of Cystine", "setting": "[4]", "value": "YES"}]}, {"compound": "N[C@@H](CS)C(=O)NCC(=O)O", "note": "[Cystenyl-glycine]", "values": [{"measurement": "Hair Mass Percent Reduction", "setting": "[1]; Dose 15%, Vehicle A, topical", "value": "55 ± 8", "unit": "%"}, {"measurement": "Hair Mass Treated", "setting": "[1]; Dose 15%, Vehicle A, topical", "value": "0.93 ± 0.18", "unit": "mg"}, {"measurement": "Reduction of Cystine", "setting": "[4]", "value": "YES"}]}, {"compound": "N[C@H](CS)C(=O)O", "note": "[D-Cysteine]", "values": [{"measurement": "Hair Mass Percent Reduction", "setting": "[1]; Dose 10%, Vehicle A, topical", "value": "60 ± 3", "unit": "%"}, {"measurement": "Hair Mass Treated", "setting": "[1]; Dose 10%, Vehicle A, topical", "value": "1.20 ± 0.17", "unit": "mg"}]}, {"compound": "CC(C)(SSC(C)(C)[C@@H](N)C(=O)O)[C@@H](N)C(=O)O", "note": "[D-Penicillamine disulfide]", "values": [{"measurement": "Hair Mass Percent Reduction", "setting": "[1]; Dose 15%, Vehicle A, topical", "value": "55 ± 4", "unit": "%"}, {"measurement": "Hair Mass Treated", "setting": "[1]; Dose 15%, Vehicle A, topical", "value": "1.09 ± 0.23", "unit": "mg"}]}, {"compound": "CC(C)(S)[C@@H](N)C(=O)O", "note": "[D-Penicillamine, reference compound]", "values": [{"measurement": "Hair Mass Percent Reduction", "setting": "[1]; Dose 15%, Vehicle A, topical", "value": "65 ± 5", "unit": "%"}, {"measurement": "Hair Mass Treated", "setting": "[1]; Dose 15%, Vehicle A, topical", "value": "0.57 ± 0.07", "unit": "mg"}, {"measurement": "Percent reduction in hair shaft cysteine", "setting": "[2]; hamster flank organ hairs", "value": 50, "unit": "%"}, {"measurement": "Formation of Cysteine mixed disulfide in-vitro", "setting": "[3]", "value": "YES"}, {"measurement": "Formation of Cysteine mixed disulfide in hair shaft", "setting": "[5]", "value": "YES"}]}, {"compound": "CCN(CC)C(=S)S", "note": "[Diethyldithiocarbamic acid]", "values": [{"measurement": "Hair Mass Percent Reduction", "setting": "[1]; Dose 15%, Vehicle A, topical", "value": "68 ± 7", "unit": "%"}, {"measurement": "Hair Mass Treated", "setting": "[1]; Dose 15%, Vehicle A, topical", "value": "0.65 ± 0.09", "unit": "mg"}, {"measurement": "Percent reduction in hair shaft cysteine", "setting": "[2]; hamster flank organ hairs", "value": 18, "unit": "%"}]}, {"compound": "O=S(=O)(O)CCO", "note": "[Isethionic acid]", "values": [{"measurement": "Hair Mass Percent Reduction", "setting": "[1]; Dose 15%, Vehicle A, topical", "value": "50 ± 7", "unit": "%"}, {"measurement": "Hair Mass Treated", "setting": "[1]; Dose 15%, Vehicle A, topical", "value": "1.45 ± 0.22", "unit": "mg"}]}, {"compound": "CCOC(=O)[C@@H](N)CS", "note": "[L-Cysteine ethyl ester]", "values": [{"measurement": "Hair Mass Percent Reduction", "setting": "[1]; Dose 20%, Vehicle A, topical", "value": "82 ± 3", "unit": "%"}, {"measurement": "Hair Mass Treated", "setting": "[1]; Dose 20%, Vehicle A, topical", "value": "0.49 ± 0.08", "unit": "mg"}]}, {"compound": "COC(=O)[C@@H](N)CS", "note": "[L-Cysteine methyl ester]", "values": [{"measurement": "Hair Mass Percent Reduction", "setting": "[1]; Dose 20%, Vehicle A, topical", "value": "86 ± 3", "unit": "%"}, {"measurement": "Hair Mass Treated", "setting": "[1]; Dose 20%, Vehicle A, topical", "value": "0.28 ± 0.07", "unit": "mg"}]}, {"compound": "CC(=O)N[C@@H](CS)C(=O)O", "note": "[N-Acetyl-L-Cysteine, reference compound]", "values": [{"measurement": "Hair Mass Percent Reduction", "setting": "[1]; Dose 15%, Vehicle A, topical", "value": "80 ± 4", "unit": "%"}, {"measurement": "Hair Mass Treated", "setting": "[1]; Dose 15%, Vehicle A, topical", "value": "0.39 ± 0.07", "unit": "mg"}]}, {"compound": "NCCSC[C@H](N)C(=O)O", "note": "[S-2-Aminoethyl-L-cysteine]", "values": [{"measurement": "Hair Mass Percent Reduction", "setting": "[1]; Dose 20%, Vehicle A, topical", "value": "50 ± 11", "unit": "%"}, {"measurement": "Hair Mass Treated", "setting": "[1]; Dose 20%, Vehicle A, topical", "value": "0.99 ± 0.20", "unit": "mg"}]}, {"compound": "O=C(O)c1cc(/N=N/c2ccc(S(=O)(=O)Nc3ccccn3)cc2)ccc1O", "note": "[Sulfasalazine, reference compound]", "values": [{"measurement": "Hair Mass Percent Reduction", "setting": "[1]; Dose 20%, Vehicle C, topical", "value": "61 ± 6", "unit": "%"}, {"measurement": "Hair Mass Treated", "setting": "[1]; Dose 20%, Vehicle C, topical", "value": "0.88 ± 0.14", "unit": "mg"}, {"measurement": "Percent reduction in hair shaft cysteine", "setting": "[2]; hamster flank organ hairs", "value": "(−2%)"}]}, {"compound": "O=C(O)c1ccccc1S", "note": "[Thiosalicylic acid]", "values": [{"measurement": "Hair Mass Percent Reduction", "setting": "[1]; hamster, in vivo", "value": "89 ± 2", "unit": "%"}, {"measurement": "Hair Mass Treated", "setting": "[1]; hamster, in vivo", "value": "0.18 ± 0.04", "unit": "mg"}, {"measurement": "Percent reduction in hair shaft cysteine", "setting": "[2]; hamster, in vivo", "value": 14, "unit": "%"}]}, {"compound": "O=C(O)[C@@H](S)[C@@H](S)C(=O)O", "note": "[meso-2,3,-Dimercaptosuccinic acid]", "values": [{"measurement": "Hair Mass Percent Reduction", "setting": "[1]; Dose 20%, Vehicle C, topical", "value": "50 ± 5", "unit": "%"}, {"measurement": "Hair Mass Treated", "setting": "[1]; Dose 20%, Vehicle C, topical", "value": "1.08 ± 0.16", "unit": "mg"}, {"measurement": "Percent reduction in hair shaft cysteine", "setting": "[2]; hamster flank organ hairs", "value": 22, "unit": "%"}, {"measurement": "Reduction of Cystine", "setting": "[4]", "value": "YES"}]}]}
